This note sets out measurements from patent publication EP0244595A2, “Dihydropyridine derivatives, process for their preparation and their use as pharmaceutical compounds” (Byk Gulden Lomberg Chemische Fabrik GmbH, priority 1986, dated 1987).

In the assay the test system is genetisch hypertonen Ratten. Description: Antihypertensive effect (systolic blood pressure, tail cuff) in spontaneously hypertensive rats after oral dosing. Format: in vivo, Ratte. The following applies: Rattus norvegicus; for change in vivo at 10 µmol/kg: 10 µmol/kg p.o. once daily on four consecutive days; for change in vivo at 25 µmol/kg: 25 µmol/kg p.o. once daily on four consecutive days; for change in vivo at 5 µmol/kg: 5 µmol/kg p.o. once daily on four consecutive days. An excerpt:
Die antihypertensive Wirksamkeit der erfindungsgemäßen Verbindungen kann am Modell der spontan hypertonen Ratte nachgewiesen werden.
Zur Bestimmung der antihypertensiven Wirkung werden die unten aufgeführten Verbindungen in den angegebenen Dosen an vier aufeinander folgenden Tagen an je 6 männlichen Ratten (Stamm SHR/N/Ibm/Bm, 250-350 g) mit genetisch bedingtem Hochdruck (systolischer Blutdruck > 180 mmHg) täglich einmal mittels Schlundsonde verabfolgt. Die Messung des Blutdrucks erfolgt jeweils 6 und gegebenenfalls 2 oder 24 Studnen nach Substanzgabe.
Die Blutdruckmessung wird in einer Wärmekammer bei 36°C vorgenommen, um eine bessere Durchblutung der Schwanzarterie zu erreichen. Hierzu werden die Tiere in perforierte Lochblechkäfige verbracht und 20 - 40 Min. nach Beginn der Aufwärmung gemessen. Zur Messung des systolischen arteriellen Drucks wird eine ringförmige Manschette mit aufblasbarer Gummimembran zur Unterbindung der Durchblutung und ein ringförmiger Piezokristallaufnehmer zur Erfassung der Pulswellen auf den Schwanz aufgeschoben. Nach erfolgter Unterbindung des Blutstroms in der Schwanzarterie wird der Manschettendruck kontinuierlich reduziert. Die Wiederkehr der Pulswellen bei Druckablassen wird automatisch als systolischer Blutdruck erkannt und ausgedruckt (Bühler, R. er al." Microprocessor-based automation of blood pressure measurement in the conscious rat. Proceedings of the 4th international symposium on rats with spontaneous hypertension and related studies, Rascher, R. et al. (Eds.), Schattauer Verlag, Stuttgart, New York, 1982, S. 410-413). Pulssignale und Druckverlauf werden zur Auswertung graphisch aufgezeichnet.
Zur Gewöhnung an den Meßvorgang werden die Tiere vor Substanzprüfung 14 Tage trainiert. In der zweiten Trainingswoche werden Blutdruck-Vorwerte erhoben. Tiergruppen, die Substanz erhalten, werden gegen eine Kontrollgruppe geprüft.
In der anschließenden Tabelle werden die untersuchten Verbindungen durch laufende Nummern gekennzeichnet, die mit den jewiligen Beispielnummern übereinstimmen.
Tabelle I gibt für die Vertreter der erfindungsgemäßen Verbindungen die prozentuale Senkung des Blutdrucks (BP) nach oraler Verabreichung bei der Ratte wieder.

Setting [1] is: 2h after dosing, mean of days 1+4, male SHR/N/Ibm/Bm rats, N=6, read-out: BP (% Änderung vs. Kontrolle), Mittelwert für Meßzeitpunkte: Stunden nach Gabe (Tage) 2h (1.+4.Tag).
Setting [2] is: 6h after dosing, mean of days 1-4, male SHR/N/Ibm/Bm rats, N=6, read-out: BP (% Änderung vs. Kontrolle), Mittelwert für Meßzeitpunkte: Stunden nach Gabe (Tage) 6h (1.-4.Tag).
Setting [3] is: 24h after dosing, mean of days 1+3, male SHR/N/Ibm/Bm rats, N=6, read-out: BP (% Änderung vs. Kontrolle), Mittelwert für Meßzeitpunkte: Stunden nach Gabe (Tage) 24h (1.+3.Tag).

Where a name gives a salt, the structure may show the parent alone. Read-outs that look alike come from different tables or passages of the source.

`COc1cccc(N2CCN(CCCOC(=O)C3=C(C)NC(C)=C(C(=O)O[C@@H]4C[C@H](C)CC[C@H]4C(C)C)C3c3cccc([N+](=O)[O-])c3)CC2)c1` (single isomer, unassigned) [Beispiel 15, 1,4-Dihydro-2,6-dimethyl-4-(3-nitrophenyl)-pyridin-3,5-dicarbonsäure-3-(-)-menthyl-5-{3-[4-(3-methoxyphenyl)-1-piperazinyl]-propyl}-ester-fumarat]: the change in vivo at 10 µmol/kg runs as follows: under setting [1], -14%; under setting [2], -7%; under setting [3], -4%.
`CC1=C(C(=O)OCCCN2CCN(c3ccccc3C)CC2)C(c2cccc([N+](=O)[O-])c2)C(C(=O)O[C@@H]2C[C@H](C)CC[C@H]2C(C)C)=C(C)N1` (single isomer, unassigned) [Beispiel 17, 1,4-Dihydro-2,6-dimethyl-4-(3-nitrophenyl)-pyridin-3,5-dicarbonsäure-3-(-)-menthyl-5-{3-[4-(2-tolyl)-1-piperazinyl]-propyl}-ester-fumarat]: the change in vivo at 10 µmol/kg reads like this: under setting [1], -17%; under setting [2], -14%; under setting [3], -3%.
For `CCOc1ccccc1N1CCN(CCCOC(=O)C2=C(C)NC(C)=C(C(=O)O[C@@H]3C[C@H](C)CC[C@H]3C(C)C)C2c2cccc(Cl)c2Cl)CC1` (single isomer, unassigned) [Beispiel 22, 4-(2,3-Dichlorphenyl)-1,4-dihydro-2,6-dimethyl-pyridin-3,5-dicarbonsäure-3-(-)-menthyl-5-{3-[4-(2-ethoxyphenyl)-1-piperazinyl]-propyl}ester-fumarat], the change in vivo at 25 µmol/kg was -46% under setting [1], -55% under setting [2] and -43% under setting [3].
As for `CC1=C(C(=O)OCCCN2CCN(c3ccccc3)CC2)C(c2cccc([N+](=O)[O-])c2)C(C(=O)O[C@@H]2C[C@H](C)CC[C@H]2C(C)C)=C(C)N1` (single isomer, unassigned) [Beispiel 10, 1,4-Dihydro-2,6-dimethyl-4-(3-nitrophenyl)-pyridin-3,5-dicarbonsäure-3-(-)-menthyl-5-[3-(4-phenyl-1-piperazinyl)-propyl]-ester-fumarat], the change in vivo at 25 µmol/kg by setting is: under setting [1], -34%; under setting [2], -34%; under setting [3], -6%.
With `CC1=C(C(=O)OCCCN2CCC(c3ccccc3)CC2)C(c2cccc([N+](=O)[O-])c2)C(C(=O)O[C@@H]2C[C@H](C)CC[C@H]2C(C)C)=C(C)N1` (stereo partly drawn) [Beispiel 2a, 1,4-Dihydro-2,6-dimethyl-4-(3-nitrophenyl)-pyridin-3,5-dicarbonsäure-3-(-)-menthyl-5-[3-(4-phenylpiperidyl-1)-propyl]-ester-hydrochlorid], the change in vivo at 25 µmol/kg is, setting by setting: under setting [1], -25%; under setting [2], -24%; under setting [3], -16%.
For `CC1=C(C(=O)OCCN2CCCCC2)C(c2cccc([N+](=O)[O-])c2)C(C(=O)O[C@@H]2C[C@H](C)CC[C@H]2C(C)C)=C(C)N1` (single isomer, unassigned) [Beispiel 23, 1,4-Dihydro-2,6-dimethyl-4-(3-nitrophenyl)-pyridin-3,5-dicarbonsäure-3-(-)-menthyl-5-[2-(1-piperidinyl)-ethyl]-ester-fumarat], the change in vivo at 25 µmol/kg reads like this: under setting [1], -17%; under setting [2], -26%; under setting [3], 4%.
On to `CC1=C(C(=O)OCCCN2CCN(c3cccc(C(F)(F)F)c3)CC2)C(c2cccc([N+](=O)[O-])c2)C(C(=O)O[C@@H]2C[C@H](C)CC[C@H]2C(C)C)=C(C)N1` (single isomer, unassigned) [Beispiel 14, 1,4-Dihydro-2,6-dimethyl-4-(3-nitrophenyl)-pyridin-3,5-dicarbonsäure-3-(-)-menthyl-5-{3-[4-(3-trifluormethylphenyl}-1-piperazinyl]-propyl}-ester-fumarat], for which the change in vivo at 25 µmol/kg is, setting by setting: under setting [1], -42%; under setting [2], -43%; under setting [3], -21%.
In the same order, the values of `CC1=C(C(=O)OCCCN(C)Cc2ccccc2)C(c2cccc([N+](=O)[O-])c2)C(C(=O)O[C@@H]2C[C@H](C)CC[C@H]2C(C)C)=C(C)N1` (single isomer, unassigned) [Beispiel 6] are -27%, -33% and -10%.
Take `CC1=C(C(=O)OCCN2CCN(c3ccccn3)CC2)C(c2cccc([N+](=O)[O-])c2)C(C(=O)O[C@@H]2C[C@H](C)CC[C@H]2C(C)C)=C(C)N1` (stereo partly drawn) [Beispiel 5a, 1,4-Dihydro-2,6-dimethyl-4-(3-nitropheny)-pyridin-3,5-dicarbonsäure-3-(-)-menthyl-5-{2-[4-(2-pyridyl)-1-piperazinyl]-ethyl}-ester-fumarat]: the change in vivo at 10 µmol/kg runs as follows: under setting [1], -29%; under setting [2], -11%; under setting [3], -3%.
On to `CC1=C(C(=O)OCCN2CCN(c3ccccc3)CC2)C(c2cccc([N+](=O)[O-])c2)C(C(=O)O[C@@H]2C[C@H](C)CC[C@H]2C(C)C)=C(C)N1` (stereo partly drawn) [Beispiel 4a, 1,4-Dihydro-2,6-dimethyl-4-(3-nitrophenyl)-pyridin-3,5-dicarbonsäure-3-(-)-menthyl-5-[2-(4-phenyl-1-piperazinyl)-ethyl]ester-fumarat], for which the change in vivo at 5 µmol/kg was -34% under setting [1], -23% under setting [2] and -14% under setting [3].
Consider `COc1ccccc1N1CCN(CCCOC(=O)C2=C(C)NC(C)=C(C(=O)O[C@@H]3C[C@H](C)CC[C@H]3C(C)C)C2c2cccc(Cl)c2Cl)CC1` (single isomer, unassigned) [Beispiel 21, 4-(2,3-Dichlorphenyl)-1,4-dihydro-2,6-dimethyl-pyridin-3,5-dicarbonsäure-3-(-)-menthyl-5-{3-[4-(2-methoxyphenyl)-1-piperazinyl]-propyl}ester-fumarat], for which the change in vivo at 25 µmol/kg under setting [1] was -50%, the change in vivo at 25 µmol/kg under setting [2] is -51% and the change in vivo at 25 µmol/kg under setting [3] was -46%.
As to `CC1=C(C(=O)OCCCN2CCN(c3ccc(C)cc3C)CC2)C(c2cccc([N+](=O)[O-])c2)C(C(=O)O[C@@H]2C[C@H](C)CC[C@H]2C(C)C)=C(C)N1` (single isomer, unassigned) [Beispiel 18, 1,4-Dihydro-2,6-dimethyl-4-(3-nitrophenyl)-pyridin-3,5-dicarbonsäure-3-(-)-menthyl-5-{3-[4-(2,4-dimethylphenyl)-1-piperazinyl]-propyl}-ester-fumarat], the change in vivo at 10 µmol/kg by setting is: under setting [1], -15%; under setting [2], -18%; under setting [3], -3%.
For `CC1=C(C(=O)OCCCN2CCN(c3ccc4c(c3)OCO4)CC2)C(c2cccc([N+](=O)[O-])c2)C(C(=O)O[C@@H]2C[C@H](C)CC[C@H]2C(C)C)=C(C)N1` (single isomer, unassigned) [Beispiel 16, 1,4-Dihydro-2,6-dimethyl-4-(3-nitrophenyl)-pyridin-3,5-dicarbonsäure-3-(-)-menthyl-5-{3-[4-(3,4-methylendioxyphenyl)-1-piperazinyt]-propyl}ester-fumarat] the same measures were -21%, -21% and -7%.
